# In patent US7635572B2, “Methods for conducting assays for enzyme activity on protein microarrays” (Life Technologies Corporation, priority 2004, dated 2009):
# Legend:
# Test in all cases: Further analysis of a plurality of inhibitors and a plurality of kinases on microarray (Example IX, Table 5);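 further: inhibition of each kinase by the inhibitors is given as a qualitative level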;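 on Inhibition level, DAPK2: level 0 no or unclear inhibition to Level 2 substantial inhibition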;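 on Inhibition level, DYRK1A: level 0 none or unclear Level 1 marginal Level 2 substantial inhibition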;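 on Inhibition level, FGFR2: level 0 none or unclear then 1 little or marginal then 2 substantial inhibition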;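 on Inhibition level, Homo sapiens in: level 0 none or unclear Level 1 marginal Level 2 substantial inhibition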;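 on Inhibition level, Homo sapiens, o: level 0 none or unclear Level 1 marginal Level 2 substantial inhibition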;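 on Inhibition level, ITK: level 0 none or unclear then 1 little or marginal then 2 substantial inhibition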;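 on Inhibition level, MAP3K7: level 0 none or unclear then 1 little or marginal then 2 substantial inhibition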;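 on Inhibition level, PTK2B: level 0 no or unclear inhibition to Level 2 substantial inhibition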;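 on Inhibition level, TLK2: level 0 none or unclear Level 1 marginal Level 2 substantial inhibition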
# Format in all cases: biochemical
# [1] = molecular target: plurality of kinases (Table 5) (Homo sapiens, UniProt P21802); settings: inhibitor 100 uM
# Chain of plurality of kinases (Table 5) (Homo sapiens, UniProt P21802) (P21802 22-821): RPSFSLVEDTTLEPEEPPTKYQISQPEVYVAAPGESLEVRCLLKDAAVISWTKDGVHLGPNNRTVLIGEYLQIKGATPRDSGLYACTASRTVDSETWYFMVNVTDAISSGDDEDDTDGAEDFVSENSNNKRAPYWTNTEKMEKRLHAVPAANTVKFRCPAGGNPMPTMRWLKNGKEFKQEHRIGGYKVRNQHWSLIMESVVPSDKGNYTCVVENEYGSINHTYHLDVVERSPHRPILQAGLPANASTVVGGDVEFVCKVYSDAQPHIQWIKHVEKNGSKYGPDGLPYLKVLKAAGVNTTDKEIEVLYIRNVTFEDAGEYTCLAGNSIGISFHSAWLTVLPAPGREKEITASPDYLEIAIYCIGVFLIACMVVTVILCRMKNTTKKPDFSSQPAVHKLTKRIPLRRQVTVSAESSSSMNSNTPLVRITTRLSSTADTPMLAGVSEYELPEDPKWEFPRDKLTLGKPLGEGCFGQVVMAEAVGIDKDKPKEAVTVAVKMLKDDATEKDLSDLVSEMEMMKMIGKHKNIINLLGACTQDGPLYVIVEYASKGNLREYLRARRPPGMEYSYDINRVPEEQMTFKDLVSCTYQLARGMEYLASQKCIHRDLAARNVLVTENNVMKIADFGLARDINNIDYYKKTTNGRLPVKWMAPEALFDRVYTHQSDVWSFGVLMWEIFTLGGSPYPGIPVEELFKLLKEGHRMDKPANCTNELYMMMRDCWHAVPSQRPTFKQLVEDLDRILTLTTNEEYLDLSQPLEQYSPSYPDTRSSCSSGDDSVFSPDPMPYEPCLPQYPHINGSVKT
# [2] = molecular target: T1, plurality of kinases (Table 5) (Homo sapiens, UniProt Q08881); settings: plate E4; inhibitor 100 uM
# T1 sequence (Q08881 1-620): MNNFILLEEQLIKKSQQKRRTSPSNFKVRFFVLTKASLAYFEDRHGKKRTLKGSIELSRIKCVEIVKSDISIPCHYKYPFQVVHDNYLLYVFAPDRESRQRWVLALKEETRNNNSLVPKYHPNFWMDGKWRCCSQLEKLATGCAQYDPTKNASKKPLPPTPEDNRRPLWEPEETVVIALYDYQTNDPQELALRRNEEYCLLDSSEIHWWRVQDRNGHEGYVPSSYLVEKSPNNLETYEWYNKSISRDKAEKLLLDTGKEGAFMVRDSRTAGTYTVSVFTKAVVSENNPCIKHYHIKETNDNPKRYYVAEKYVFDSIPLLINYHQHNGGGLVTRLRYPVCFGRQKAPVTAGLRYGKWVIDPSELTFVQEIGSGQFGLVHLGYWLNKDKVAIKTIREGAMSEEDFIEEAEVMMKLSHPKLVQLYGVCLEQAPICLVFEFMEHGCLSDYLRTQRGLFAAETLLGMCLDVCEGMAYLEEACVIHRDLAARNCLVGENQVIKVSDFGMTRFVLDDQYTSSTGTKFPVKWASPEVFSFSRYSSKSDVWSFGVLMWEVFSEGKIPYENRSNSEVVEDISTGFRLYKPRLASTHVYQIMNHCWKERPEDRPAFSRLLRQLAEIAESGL
# [3] = molecular target: plurality of kinases (Table 5) (Homo sapiens, UniProt Q13627); settings: plate G6; inhibitor 100 uM
# [4] = molecular target: plurality of kinases (Table 5) (Homo sapiens, UniProt P07949); settings: plate B7; inhibitor 100 uM
# Chain of plurality of kinases (Table 5) (Homo sapiens, UniProt P07949) (P07949 29-1114): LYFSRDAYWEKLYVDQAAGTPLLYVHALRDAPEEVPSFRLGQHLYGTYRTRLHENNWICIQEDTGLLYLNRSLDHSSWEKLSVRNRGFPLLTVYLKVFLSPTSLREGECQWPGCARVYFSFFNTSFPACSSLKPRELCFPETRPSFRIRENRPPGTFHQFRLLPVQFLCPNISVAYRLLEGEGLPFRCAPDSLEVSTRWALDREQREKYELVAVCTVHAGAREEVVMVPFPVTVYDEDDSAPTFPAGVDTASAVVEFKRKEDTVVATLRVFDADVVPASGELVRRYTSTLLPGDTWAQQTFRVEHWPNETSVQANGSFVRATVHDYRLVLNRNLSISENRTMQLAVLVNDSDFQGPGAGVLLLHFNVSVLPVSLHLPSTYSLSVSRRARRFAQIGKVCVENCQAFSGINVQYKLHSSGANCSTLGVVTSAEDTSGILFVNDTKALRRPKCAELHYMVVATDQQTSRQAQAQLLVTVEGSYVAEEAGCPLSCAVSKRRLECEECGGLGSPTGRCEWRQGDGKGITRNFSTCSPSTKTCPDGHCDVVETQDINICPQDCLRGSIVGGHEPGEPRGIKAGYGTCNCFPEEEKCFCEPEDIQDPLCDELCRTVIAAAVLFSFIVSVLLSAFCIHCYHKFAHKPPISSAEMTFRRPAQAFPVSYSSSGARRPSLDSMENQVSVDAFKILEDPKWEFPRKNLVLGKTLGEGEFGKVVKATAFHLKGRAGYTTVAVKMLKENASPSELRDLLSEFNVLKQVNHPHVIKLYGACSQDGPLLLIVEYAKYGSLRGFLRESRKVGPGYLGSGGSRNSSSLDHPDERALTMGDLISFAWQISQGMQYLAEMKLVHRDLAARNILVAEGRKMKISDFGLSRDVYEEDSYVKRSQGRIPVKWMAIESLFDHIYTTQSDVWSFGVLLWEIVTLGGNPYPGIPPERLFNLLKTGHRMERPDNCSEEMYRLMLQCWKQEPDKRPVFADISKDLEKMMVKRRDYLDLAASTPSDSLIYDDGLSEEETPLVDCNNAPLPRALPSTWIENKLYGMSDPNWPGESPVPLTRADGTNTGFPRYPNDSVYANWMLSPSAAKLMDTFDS
# [5] = molecular target: plurality of kinases (Table 5) (Homo sapiens, UniProt Q9UIK4); settings: plate H3
# Chain of plurality of kinases (Table 5) (Homo sapiens, UniProt Q9UIK4) (Q9UIK4 whole entry): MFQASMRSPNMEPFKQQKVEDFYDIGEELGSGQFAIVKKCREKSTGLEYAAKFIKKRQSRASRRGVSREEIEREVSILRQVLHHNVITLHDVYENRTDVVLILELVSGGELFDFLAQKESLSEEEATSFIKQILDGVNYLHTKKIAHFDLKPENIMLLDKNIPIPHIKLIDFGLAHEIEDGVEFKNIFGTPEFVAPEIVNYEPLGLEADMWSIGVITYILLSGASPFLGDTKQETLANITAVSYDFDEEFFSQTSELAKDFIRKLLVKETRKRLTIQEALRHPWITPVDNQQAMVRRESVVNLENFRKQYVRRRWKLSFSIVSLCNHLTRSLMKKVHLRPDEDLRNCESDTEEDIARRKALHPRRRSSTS
# [6] = molecular target: plurality of kinases (Table 5) (Homo sapiens, UniProt O75716); settings: plate C3
# Chain of plurality of kinases (Table 5) (Homo sapiens, UniProt O75716) (O75716 whole entry): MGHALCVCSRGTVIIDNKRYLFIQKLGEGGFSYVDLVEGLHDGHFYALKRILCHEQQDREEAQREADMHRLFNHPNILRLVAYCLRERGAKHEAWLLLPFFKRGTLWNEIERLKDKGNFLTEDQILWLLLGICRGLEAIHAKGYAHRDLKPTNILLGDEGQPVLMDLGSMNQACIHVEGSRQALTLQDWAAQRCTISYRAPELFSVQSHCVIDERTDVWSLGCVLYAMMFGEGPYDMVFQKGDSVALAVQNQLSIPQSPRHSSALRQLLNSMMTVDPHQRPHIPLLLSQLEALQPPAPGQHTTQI
# [7] = molecular target: plurality of kinases (Table 5) (Homo sapiens, UniProt Q86UE8); settings: plate C8
# Chain of plurality of kinases (Table 5) (Homo sapiens, UniProt Q86UE8) (Q86UE8 whole entry): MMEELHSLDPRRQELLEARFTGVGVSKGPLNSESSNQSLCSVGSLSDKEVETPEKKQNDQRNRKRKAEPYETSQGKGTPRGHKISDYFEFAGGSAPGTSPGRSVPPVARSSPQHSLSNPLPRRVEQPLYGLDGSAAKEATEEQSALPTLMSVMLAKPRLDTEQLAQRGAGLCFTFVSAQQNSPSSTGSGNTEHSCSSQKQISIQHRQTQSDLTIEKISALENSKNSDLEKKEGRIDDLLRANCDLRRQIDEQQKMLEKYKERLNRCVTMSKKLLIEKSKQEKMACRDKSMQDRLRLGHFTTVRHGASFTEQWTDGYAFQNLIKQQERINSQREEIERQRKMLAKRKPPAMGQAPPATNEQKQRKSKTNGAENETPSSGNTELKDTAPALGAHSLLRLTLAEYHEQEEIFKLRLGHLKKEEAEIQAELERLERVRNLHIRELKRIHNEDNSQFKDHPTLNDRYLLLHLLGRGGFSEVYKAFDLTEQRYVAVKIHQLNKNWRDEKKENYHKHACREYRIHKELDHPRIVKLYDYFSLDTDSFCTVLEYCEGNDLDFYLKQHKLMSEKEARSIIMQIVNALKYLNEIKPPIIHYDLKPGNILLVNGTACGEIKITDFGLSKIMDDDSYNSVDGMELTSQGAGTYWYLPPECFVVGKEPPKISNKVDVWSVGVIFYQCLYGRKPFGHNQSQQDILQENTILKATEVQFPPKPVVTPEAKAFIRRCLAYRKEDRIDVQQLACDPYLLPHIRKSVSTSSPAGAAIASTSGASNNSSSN
# [8] = molecular target: plurality of kinases (Table 5) (Homo sapiens, UniProt Q14289); settings: plate G5
# Chain of plurality of kinases (Table 5) (Homo sapiens, UniProt Q14289) (Q14289 whole entry): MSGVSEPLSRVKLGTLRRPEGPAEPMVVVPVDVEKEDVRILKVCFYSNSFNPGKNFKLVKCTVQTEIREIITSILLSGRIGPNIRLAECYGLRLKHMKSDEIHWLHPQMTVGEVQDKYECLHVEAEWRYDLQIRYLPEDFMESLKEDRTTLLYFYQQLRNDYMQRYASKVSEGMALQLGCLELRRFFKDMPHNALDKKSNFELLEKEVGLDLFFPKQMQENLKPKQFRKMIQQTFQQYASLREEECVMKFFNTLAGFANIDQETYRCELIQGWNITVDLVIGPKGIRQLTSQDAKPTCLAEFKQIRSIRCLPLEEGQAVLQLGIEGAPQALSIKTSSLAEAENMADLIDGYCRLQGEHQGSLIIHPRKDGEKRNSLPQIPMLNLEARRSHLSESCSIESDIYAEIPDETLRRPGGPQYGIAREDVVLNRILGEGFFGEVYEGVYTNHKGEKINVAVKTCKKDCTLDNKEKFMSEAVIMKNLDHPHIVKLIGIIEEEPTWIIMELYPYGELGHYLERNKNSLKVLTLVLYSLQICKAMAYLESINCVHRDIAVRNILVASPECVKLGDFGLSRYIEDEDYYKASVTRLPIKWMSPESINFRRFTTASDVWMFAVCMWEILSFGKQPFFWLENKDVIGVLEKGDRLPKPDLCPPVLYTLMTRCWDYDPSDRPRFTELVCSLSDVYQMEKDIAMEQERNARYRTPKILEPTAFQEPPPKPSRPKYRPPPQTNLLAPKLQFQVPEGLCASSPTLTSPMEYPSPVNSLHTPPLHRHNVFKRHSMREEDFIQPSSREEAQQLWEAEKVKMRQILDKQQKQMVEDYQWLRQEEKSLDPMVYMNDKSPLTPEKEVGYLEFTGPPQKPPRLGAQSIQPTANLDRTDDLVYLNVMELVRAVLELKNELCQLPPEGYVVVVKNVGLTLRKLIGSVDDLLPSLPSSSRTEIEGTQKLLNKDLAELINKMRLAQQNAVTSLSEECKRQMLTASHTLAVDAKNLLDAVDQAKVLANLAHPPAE
# [9] = test system: plurality of kinases (Table 5); settings: inhibitor 100 uM
# [10] = molecular target: plurality of kinases (Table 5) (Homo sapiens, UniProt Q7KZI7); settings: plate C4; inhibitor 100 uM
# [11] = molecular target: T2, plurality of kinases (Table 5) (Homo sapiens, UniProt Q99759); settings: plate A1
# T2 sequence (Q99759 1-626): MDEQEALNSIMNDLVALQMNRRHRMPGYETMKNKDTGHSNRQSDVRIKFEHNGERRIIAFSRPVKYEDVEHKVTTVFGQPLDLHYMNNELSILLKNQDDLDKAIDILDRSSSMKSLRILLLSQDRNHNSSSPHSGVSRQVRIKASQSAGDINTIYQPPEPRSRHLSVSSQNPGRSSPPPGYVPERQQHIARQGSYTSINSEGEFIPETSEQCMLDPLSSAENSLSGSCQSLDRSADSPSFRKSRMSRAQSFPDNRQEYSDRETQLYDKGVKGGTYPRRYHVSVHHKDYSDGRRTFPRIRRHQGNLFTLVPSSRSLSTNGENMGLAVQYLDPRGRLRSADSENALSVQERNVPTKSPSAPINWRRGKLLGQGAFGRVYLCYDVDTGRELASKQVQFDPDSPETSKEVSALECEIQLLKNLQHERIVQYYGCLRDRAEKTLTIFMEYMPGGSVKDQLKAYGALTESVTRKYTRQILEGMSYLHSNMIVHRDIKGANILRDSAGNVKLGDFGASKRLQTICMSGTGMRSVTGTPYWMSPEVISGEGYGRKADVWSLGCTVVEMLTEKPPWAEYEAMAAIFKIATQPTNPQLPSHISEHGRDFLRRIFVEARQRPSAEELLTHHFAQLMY
# [12] = molecular target: T3, plurality of kinases (Table 5) (Homo sapiens, UniProt O43318); settings: plate G9; inhibitor 100 uM
# T3 sequence (O43318 1-606): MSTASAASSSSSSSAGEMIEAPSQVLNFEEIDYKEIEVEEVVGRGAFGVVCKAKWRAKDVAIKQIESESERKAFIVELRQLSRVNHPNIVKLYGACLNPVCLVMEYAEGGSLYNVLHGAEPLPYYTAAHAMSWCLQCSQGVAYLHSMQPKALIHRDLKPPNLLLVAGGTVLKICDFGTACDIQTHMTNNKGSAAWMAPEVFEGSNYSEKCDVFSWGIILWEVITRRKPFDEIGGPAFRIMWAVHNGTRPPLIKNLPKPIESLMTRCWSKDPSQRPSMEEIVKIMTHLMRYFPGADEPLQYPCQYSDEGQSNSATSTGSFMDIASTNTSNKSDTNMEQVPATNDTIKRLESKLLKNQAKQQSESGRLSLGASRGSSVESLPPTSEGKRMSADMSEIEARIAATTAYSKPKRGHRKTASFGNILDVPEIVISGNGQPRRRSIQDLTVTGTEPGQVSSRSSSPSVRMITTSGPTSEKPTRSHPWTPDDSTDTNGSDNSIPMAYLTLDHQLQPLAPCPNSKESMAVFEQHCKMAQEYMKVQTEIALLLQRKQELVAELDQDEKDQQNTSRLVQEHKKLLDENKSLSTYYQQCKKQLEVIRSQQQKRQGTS
smiles,measurement,setting,value
CC(C)(C)n1nc(-c2ccc(Cl)cc2)c2c(N)ncnc21 [PP2],"Inhibition level, FGFR2",[1]; plate B4,2
same,"Inhibition level, FGFR2",[1]; plate G8,2
same,"Inhibition level, ITK",[2],2
same,"Inhibition level, DYRK1A",[3],1
same,"Inhibition level, RET",[4],2
same,"Inhibition level, DAPK2",[5]; inhibitor 100 uM,2
same,"Inhibition level, STK16",[6]; inhibitor 100 uM,2
same,"Inhibition level, TLK2",[7]; inhibitor 100 uM,2
same,"Inhibition level, PTK2B",[8]; inhibitor 100 uM,2
same,"Inhibition level, Homo sapiens, S",[9]; plate E9,2
same,"Inhibition level, Homo sapiens, s",[9]; plate E11,2
same,"Inhibition level, Homo sapiens, s",[9]; plate F3,2
same,"Inhibition level, Homo sapiens c",[9]; plate F4,2
same,"Inhibition level, Homo sapiens, o",[9]; plate F5,2
same,"Inhibition level, Homo sapiens, S",[9]; plate F6,2
same,"Inhibition level, Homo sapiens, B",[9]; plate F7,2
same,"Inhibition level, Homo sapiens, s",[9]; plate F8,0
same,"Inhibition level, Homo sapiens in",[9]; plate F9,2
same,"Inhibition level, Homo sapiens p",[9]; plate F10,2
same,"Inhibition level, MARK2",[10],2
same,"Inhibition level, MAP3K3",[11]; inhibitor 100 uM,2
same,"Inhibition level, MAP3K7",[12],2
CN[C@@H]1C[C@H]2O[C@@](C)([C@@H]1OC)n1c3ccccc3c3c4c(c5c6ccccc6n2c5c31)C(=O)NC4 [Staurosporine],"Inhibition level, DAPK2","[5]; Staurosporine, conc. not given",2
same,"Inhibition level, STK16",[6]; Staurosporine 21.5 uM,2
same,"Inhibition level, TLK2",[7]; Staurosporine 21.5 uM,2
same,"Inhibition level, PTK2B",[8]; Staurosporine 21.5 uM,0
same,"Inhibition level, MAP3K3",[11]; Staurosporine 21.5 uM,2
O=c1c(O)c(-c2ccc(O)c(O)c2)oc2cc(O)cc(O)c12 [Quercetin],"Inhibition level, FGFR2",[1]; plate B4,0
same,"Inhibition level, FGFR2",[1]; plate G8,0
same,"Inhibition level, ITK",[2],0
same,"Inhibition level, DAPK2",[5]; inhibitor 100 uM,0
same,"Inhibition level, STK16",[6]; inhibitor 100 uM,0
same,"Inhibition level, TLK2",[7]; inhibitor 100 uM,0
same,"Inhibition level, PTK2B",[8]; inhibitor 100 uM,1
same,"Inhibition level, MAP3K3",[11]; inhibitor 100 uM,0
